In PubChem BioAssay (NCI):
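Briefly, cells in 96-well plates were exposed to five compound concentrations for 48 h, and endpoints were estimated by linear interpolation. GI50 marks 50% less growth. TGI: concentration producing complete growth inhibition.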

Tests used:
Experiment in all cases: growth of human tumour cells (NCI), 48 h
[1] = test system: HT29 colon
[2] = test system: T-47D breast
[3] = test system: IGROV1 ovarian
[4] = test system: SW-620 colon
[5] = test system: DU-145 prostate
[6] = test system: TK-10 renal
[7] = test system: NCI-H226 lung
[8] = test system: HOP-62 NSCLC
[9] = test system: UACC-62 melanoma
[10] = test system: SNB-19 CNS
[11] = test system: MOLT-4 leukemia
[12] = test system: SK-OV-3 ovarian
[13] = test system: COLO 205 colon
[14] = test system: HL-60(TB) leukemia
[15] = test system: OVCAR-4 ovarian
[16] = test system: SK-MEL-28 melanoma
[17] = test system: A498 renal
[18] = test system: OVCAR-3 ovarian
[19] = test system: K-562 leukemia
[20] = test system: NCI/ADR-RES ovarian
[21] = test system: SR leukemia
[22] = test system: PC-3 prostate
[23] = test system: BT-549 breast
[24] = test system: HS 578T breast
[25] = test system: ACHN renal
[26] = test system: CCRF-CEM leukemia
[27] = test system: OVCAR-5 ovarian
[28] = test system: UACC-257 melanoma
[29] = test system: SK-MEL-5 melanoma
[30] = test system: MALME-3M melanoma
[31] = test system: UO-31 renal
[32] = test system: NCI-H460 lung
[33] = test system: NCI-H522 lung
[34] = test system: EKVX NSCLC
[35] = test system: HCT-116 colon
[36] = test system: RXF 393 renal
[37] = test system: LOX IMVI melanoma
[38] = test system: KM12 colon
[39] = test system: MCF7 breast
[40] = test system: NCI-H23 lung
[41] = test system: CAKI-1 renal
[42] = test system: MDA-MB-435
[43] = test system: SF-295 CNS
[44] = test system: HCC-2998 colon
[45] = test system: MDA-MB-231 breast
[46] = test system: M14 melanoma
[47] = test system: SNB-75 CNS
[48] = test system: A549 NSCLC
[49] = test system: 786-0 renal
[50] = test system: U251 CNS
[51] = test system: RPMI-8226 leukemia
[52] = test system: HCT-15 colon
[53] = test system: OVCAR-8 ovarian
[54] = test system: SF-539 CNS
[55] = test system: SN12C renal
[56] = test system: HOP-92 NSCLC
[57] = test system: SK-MEL-2 melanoma
[58] = test system: SF-268 CNS

CC(=O)c1c(C)c2cnc(Nc3ccc(N4CCNCC4)cn3)nc2n(C2CCCC2)c1=O
GI50 [1]: 0.969 µM | TGI [1]: 16.8 µM | GI50 [2]: 14.5 µM | TGI [2]: 32.6 µM | GI50 [3]: 7.35 µM | TGI [3]: 25 µM | GI50 [4]: 0.332 µM | TGI [4]: 19.1 µM | GI50 [5]: 9.82 µM | TGI [5]: 21.7 µM | GI50 [6]: 0.533 µM | TGI [6]: 16.3 µM | GI50 [7]: 6.07 µM | TGI [7]: 22.4 µM | GI50 [8]: 12.8 µM | TGI [8]: 26.2 µM | GI50 [9]: 11 µM | TGI [9]: 23.9 µM | GI50 [10]: 11.7 µM | TGI [10]: 25.4 µM | GI50 [11]: 0.548 µM | TGI [11]: 24.9 µM | GI50 [12]: 9.73 µM | TGI [12]: 22.1 µM | GI50 [13]: 1.33 µM | TGI [13]: 17.6 µM | GI50 [14]: 0.638 µM | TGI [14]: 24.8 µM | GI50 [15]: 11.2 µM | TGI [15]: 23.8 µM | GI50 [16]: 12.3 µM | TGI [16]: 25.7 µM | GI50 [17]: 4.69 µM | TGI [17]: 19.5 µM | GI50 [18]: 15.9 µM | TGI [18]: 30.4 µM | GI50 [19]: 3.34 µM | TGI [19]: 19.7 µM | GI50 [20]: 16.7 µM | TGI [20]: 33.8 µM | GI50 [21]: 1.88 µM | TGI [21]: 20.7 µM | GI50 [22]: 1.74 µM | TGI [22]: 20.8 µM | GI50 [23]: 13.6 µM | TGI [23]: 27.3 µM | GI50 [24]: 14.9 µM | TGI [24]: 42.2 µM | GI50 [25]: 1.03 µM | TGI [25]: 14.7 µM | GI50 [26]: 0.707 µM | TGI [26]: > 50.6 µM | GI50 [27]: 8.59 µM | TGI [27]: 22.3 µM | GI50 [28]: 5.51 µM | TGI [28]: 20.9 µM | GI50 [29]: 2.58 µM | TGI [29]: 9.94 µM | GI50 [30]: 8.25 µM | TGI [30]: 24.4 µM | GI50 [31]: 2.6 µM | TGI [31]: 20.1 µM | GI50 [32]: 1.79 µM | TGI [32]: 18.4 µM | GI50 [33]: 13 µM | TGI [33]: 27.4 µM | GI50 [34]: 12.5 µM | TGI [34]: 26.3 µM | GI50 [35]: 3.07 µM | TGI [35]: 16.3 µM | GI50 [36]: 2.87 µM | TGI [36]: 17.2 µM | GI50 [37]: 1.46 µM | TGI [37]: 19.7 µM | GI50 [38]: 0.623 µM | TGI [38]: 13.9 µM | GI50 [39]: 0.585 µM | TGI [39]: 18.7 µM | GI50 [40]: 11.1 µM | TGI [40]: 27 µM | GI50 [41]: 1.61 µM | TGI [41]: 17.2 µM | GI50 [42]: 6.5 µM | TGI [42]: 22 µM | GI50 [43]: 12.9 µM | TGI [43]: 28.9 µM | GI50 [44]: 10.6 µM | TGI [44]: 23.9 µM | GI50 [45]: 9.84 µM | TGI [45]: 24.9 µM | GI50 [46]: 9.13 µM | TGI [46]: 23.6 µM | GI50 [47]: 10.7 µM | TGI [47]: 23.4 µM | GI50 [48]: 3.69 µM | TGI [48]: 19.2 µM | GI50 [49]: 5.04 µM | TGI [49]: 20.7 µM | GI50 [50]: 4.25 µM | TGI [50]: 20.3 µM | GI50 [51]: 0.268 µM | TGI [51]: 32.1 µM | GI50 [52]: 4.41 µM | TGI [52]: 20 µM | GI50 [53]: 12.9 µM | TGI [53]: 28.7 µM | GI50 [54]: 14.1 µM | TGI [54]: 28.3 µM | GI50 [55]: 7.37 µM | TGI [55]: 21.6 µM | GI50 [56]: 0.803 µM | TGI [56]: 22.8 µM | GI50 [57]: 11.5 µM | TGI [57]: 25.3 µM | GI50 [58]: 10.7 µM | TGI [58]: 25.3 µM

COC(=O)c1cc(-c2ccc(S(C)(=O)=O)cc2)[nH]c1N/N=C/c1c(Cl)cccc1Cl
GI50 [1]: 0.373 µM | TGI [1]: 4.45 µM | GI50 [2]: 0.374 µM | TGI [2]: > 35.7 µM | GI50 [3]: 0.482 µM | TGI [3]: 67.3 µM | GI50 [4]: 0.362 µM | TGI [4]: > 100 µM | GI50 [5]: 0.732 µM | TGI [5]: 5.53 µM | GI50 [6]: 0.988 µM | TGI [6]: 38.3 µM | GI50 [7]: 1.02 µM | TGI [7]: > 22.9 µM | GI50 [8]: 0.787 µM | TGI [8]: 32.9 µM | GI50 [9]: 0.391 µM | TGI [9]: > 47.9 µM | GI50 [10]: 0.516 µM | TGI [10]: > 100 µM | GI50 [11]: 0.514 µM | TGI [11]: > 100 µM | GI50 [12]: 0.852 µM | TGI [12]: 28.6 µM | GI50 [13]: 0.491 µM | TGI [13]: 4.72 µM | GI50 [14]: 0.57 µM | TGI [14]: > 100 µM | GI50 [15]: 1.7 µM | TGI [15]: > 100 µM | GI50 [16]: 0.893 µM | TGI [16]: > 58.2 µM | GI50 [17]: 0.334 µM | TGI [17]: 4.75 µM | GI50 [18]: 0.273 µM | TGI [18]: 0.704 µM | GI50 [19]: 1.87 µM | TGI [19]: > 100 µM | GI50 [20]: 0.343 µM | TGI [20]: 11.5 µM | TGI [21]: > 100 µM | GI50 [22]: 0.565 µM | TGI [22]: > 50 µM | GI50 [23]: 0.915 µM | TGI [23]: 62 µM | GI50 [24]: 0.318 µM | TGI [24]: 3.45 µM | GI50 [25]: 2 µM | TGI [25]: > 100 µM | GI50 [26]: 0.759 µM | GI50 [27]: 4.08 µM | TGI [27]: > 100 µM | GI50 [28]: 2.82 µM | TGI [28]: > 100 µM | GI50 [29]: 0.427 µM | TGI [29]: 14.5 µM | GI50 [30]: 1.35 µM | TGI [30]: 23.1 µM | GI50 [31]: 0.49 µM | TGI [31]: 37.5 µM | GI50 [32]: 0.367 µM | TGI [32]: 10.3 µM | GI50 [33]: 0.988 µM | GI50 [34]: 1.11 µM | TGI [34]: > 76.1 µM | GI50 [35]: 0.454 µM | TGI [35]: > 47.9 µM | GI50 [36]: 1.04 µM | TGI [36]: > 100 µM | GI50 [37]: 1.61 µM | TGI [37]: > 100 µM | GI50 [38]: 0.386 µM | TGI [38]: 10 µM | GI50 [39]: 0.329 µM | TGI [39]: 20.8 µM | GI50 [40]: 0.75 µM | TGI [40]: > 93.7 µM | GI50 [41]: 0.377 µM | TGI [41]: 13.9 µM | GI50 [42]: 0.214 µM | TGI [42]: 0.578 µM | GI50 [43]: 0.281 µM | TGI [43]: 3.24 µM | GI50 [44]: 0.987 µM | TGI [44]: 19.8 µM | GI50 [45]: 1.73 µM | TGI [45]: > 100 µM | GI50 [46]: 0.624 µM | TGI [46]: 9.77 µM | GI50 [47]: 0.298 µM | TGI [47]: 1.93 µM | GI50 [48]: 0.656 µM | TGI [48]: > 39.4 µM | GI50 [49]: 0.747 µM | TGI [49]: > 32.2 µM | GI50 [50]: 0.489 µM | TGI [50]: > 54.6 µM | GI50 [51]: 0.491 µM | TGI [51]: > 39.1 µM | GI50 [52]: 0.463 µM | TGI [52]: > 100 µM | GI50 [53]: 1.27 µM | TGI [53]: 98.1 µM | GI50 [54]: 0.496 µM | TGI [54]: 4.79 µM | GI50 [55]: 0.699 µM | TGI [55]: > 100 µM | GI50 [56]: 0.845 µM | TGI [56]: > 28.2 µM | GI50 [57]: 0.765 µM | TGI [57]: > 52.9 µM | GI50 [58]: 0.587 µM | TGI [58]: > 56.4 µM
